Measurements reported in PMC9966726, “Methylene Blue Inhibits Cromakalim-Activated K^+ Currents in Follicle-Enclosed Oocytes” (Membranes, 2023).
Blank lines part the entries; values can stand above or below the compound they belong to.

How the values were obtained:
[1] = system: T1, KATP channels of follicular cells (follicle-enclosed Xenopus oocytes); test: two-electrode voltage clamp, cromakalim-activated K+ current, follicle-enclosed oocytes; type: cell-based, Xenopus laevis; conditions: channel opener; control without MB; -20 mV; pH 7.5; slope 0.91
T1 construct: gene kcnj11; native channel, endogenous to follicular cells; pore tetramer with one SUR per pore subunit; isoforms not determined

[2] = system: T1, KATP channels of follicular cells (follicle-enclosed Xenopus oocytes); test: as above; type: cell-based, Xenopus laevis; conditions: 100 μM cromakalim; 20 min MB preincubation; -20 mV; pH 7.5; noncompetitive, voltage-independent; slope 1.1
[3] = system: T1, KATP channels of follicular cells (follicle-enclosed Xenopus oocytes); test: [3H]glibenclamide saturation binding, microsomal membranes, filtration; parameters: species or system Xenopus laevis; conditions: labelled compound; control without MB; 50 mM HEPES, pH 7.5, 22 °C, 60 min; sulfonylurea receptor site

EC50 [1]: 194 ± 21 µM
SMILES: CC1(C)Oc2ccc(C#N)cc2C(N2CCCC2=O)C1O (stereo not drawn) [CKL, cromakalim]

SMILES: CN(C)c1ccc2nc3ccc(N(C)C)cc3[s+]c2c1 [MB, Methylene blue]
IC50 [2]: 22.4 µM

SMILES: COc1ccc(Cl)cc1C(=O)NCCc1ccc(S(=O)(=O)NC(=O)NC2CCCCC2)cc1 [[^3H]glibenclamide]
Kd [3]: 0.00121 ± 0.00014 µM
